In patent US10669283B2, “Compound and pharmacologically acceptable salt thereof” (MEIJI SEIKA PHARMA CO., LTD., priority 2016, dated 2020) one finds IC50 data, which are given here for 33 compounds.

The subject of one assay is PDE4. Description: PDE4 inhibition, scintillation proximity assay (SPA).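 On PDE4 Inhibitory Activity (concentration for the inhibition rate of 50%): A below 100 nM B 100 to below 1000 nM C 1000 nM or more.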 As to conditions: scintillation proximity assay (SPA); evaluated as classes A, B, C; read-out: PDE4 Inhibitory Activity (concentration for the inhibition rate of 50%). The assay is classed as biochemical. A digest of the protocol:
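Compound pre-diluted 1:10 in 50 mM Tris-HCl pH 7.4, 8.3 mM MgCl2, 1.7 mM EGTA, 3 mg/mL BSA, then incubated with PDE4 and [2,8-3H]-cAMP for 120 min at room temperature. Product captured on ZnSO4-containing YSi-SPA beads for 15 min; radioactivity counted against no-enzyme blank and DMSO control.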
On the technique in general: Scintillation proximity formats need no separation of bound from free tracer.
For `C[S+]([O-])c1cc(-c2nccs2)c2oc(N3CC4CC(C3)N4)nc2c1` (stereo not drawn) [Example 43, 2-(3,6-Diazabicyclo[3.1.1]heptan-3-yl)-5-(methylsulfinyl)-7-(thiazol-2-yl)benzo[d]oxazole], the IC50 is < 100 nM.

As to `CCOC(=O)c1cc(-n2cccn2)c2oc(N3CC4COCC(C3)N4)nc2c1` [Example 92, Ethyl 2-(3-oxa-7,9-diazabicyclo[3.3.1]nonan-7-yl)-7-(1H-pyrazol-1-yl)benzo[d]oxazole-5-carboxylate], the IC50 is > 1000 nM.

Regarding `CCOC(=O)c1cc(-c2nccs2)c2oc(N3CC4CC(C3)N4)nc2c1OC(F)(F)F` [Example 187, Ethyl 2-(3,6-diazabicyclo[3.1.1]heptan-3-yl)-7-(thiazol-2-yl)-4-(trifluoromethoxy)benzo[d]oxazole-5-carboxylate], the IC50 is < 100 nM.

As to `c1csc(-c2ccc(OC3CCOC3)c3nc(N4CC5CCC(C4)N5)oc23)n1` (stereo not drawn) [Example 84, 2-(3,8-Diazabicyclo[3.2.1]octan-3-yl)-4-((tetrahydrofuran-3-yl)oxy)-7-(thiazol-2-yl)benzo[d]oxazole], the IC50 was < 100 nM.

With `CCC(O)c1cc(-c2nccs2)c2oc(N3CC4CCC(C3)N4)nc2c1OC(F)(F)F` (stereo not drawn) [Example 204, 1-(2-(3,8-Diazabicyclo[3.2.1]octan-3-yl)-7-(thiazol-2-yl)-4-(trifluoromethoxy)benzo[d]oxazol-5-yl)propan-1-ol], the IC50 was < 100 nM.

For the compound `CC(O)c1cc(-c2nccs2)c2oc(N3CC4CC(C3)N4)nc2c1OC(F)(F)F` (stereo not drawn) [Example 272, 1-(2-(3,6-Diazabicyclo[3.1.1]heptan-3-yl)-7-(thiazol-2-yl)-4-(trifluoromethoxy)benzo[d]oxazol-5-yl)ethan-1-ol], the IC50 is < 100 nM.

Regarding `COC(C)c1cc(-c2nccs2)c2oc(N3CC4CC(C3)N4)nc2c1C(F)(F)F` (stereo not drawn) [Example 185, 2-(3,6-Diazabicyclo[3.1.1]heptan-3-yl)-5-(1-methoxyethyl)-7-(thiazol-2-yl)-4-(trifluoromethyl)benzo[d]oxazole], the IC50 is < 100 nM.

Regarding `FC(F)(F)c1cc(-c2nccs2)c2oc(N3CC4CCCC(C3)N4)nc2c1` [Example 53, 2-(3,9-Diazabicyclo[3.3.1]nonan-3-yl)-7-(thiazol-2-yl)-5-(trifluoromethyl)benzo[d]oxazole], the IC50 is < 100 nM.

Turning to `CC(C)(O)C(F)(F)Oc1ccc(-c2ncco2)c2oc(N3CC4CC(C3)N4)nc12` [Example 290, 1-((2-(3,6-Diazabicyclo[3.1.1]heptan-3-yl)-7-(oxazol-2-yl)benzo[d]oxazol-4-yl)oxy)-1,1-difluoro-2-methylpropan-2-ol], the IC50 was < 100 nM.

As for `OC(c1cc(-c2cscn2)c2oc(N3CC4CC(C3)N4)nc2c1OC(F)(F)F)C(F)F` (stereo not drawn) [Example 301, 1-(2-(3,6-Diazabicyclo[3.1.1]heptan-3-yl)-7-(thiazol-4-yl)-4-(trifluoromethoxy)benzo[d]oxazol-5-yl)-2,2-difluoroethan-1-ol], the IC50 is < 100 nM.

`OC1(c2cc(-c3cscn3)c3oc(N4CC5CC(C4)N5)nc3c2OC(F)(F)F)CC1` [Example 299, 1-(2-(3,6-Diazabicyclo[3.1.1]heptan-3-yl)-7-(thiazol-4-yl)-4-(trifluoromethoxy)benzo[d]oxazol-5-yl)cyclopropan-1-ol]: the IC50 is < 100 nM.

On to `CC(C)(O)c1cc(-c2nccs2)c2oc(N3CC4CCC(C3)N4)nc2c1C(F)(F)F` [Example 177, 2-(2-(3,8-Diazabicyclo[3.2.1]octan-3-yl)-7-(thiazol-2-yl)-4-(trifluoromethyl)benzo[d]oxazol-5-yl)propan-2-ol], for which the IC50 was < 100 nM.

With `COC(C)c1cc(-c2nccs2)c2oc(N3CC4CCC(C3)N4)nc2c1` (stereo not drawn) [Example 110, 2-(3,8-Diazabicyclo[3.2.1]octan-3-yl)-5-(1-methoxyethyl)-7-(thiazol-2-yl)benzo[d]oxazole], the IC50 was < 100 nM.

Turning to `FC(F)(F)c1c(Cl)cc(-c2ccccn2)c2oc(N3CC4CC(C3)N4)nc12` [Example 13, 2-(3,6-Diazabicyclo[3.1.1]heptan-3-yl)-5-chloro-7-(pyridin-2-yl)-4-(trifluoromethyl)benzo[d]oxazole], the IC50 was < 100 nM.

On to `FC(F)(F)Oc1c(Cl)cc(-c2nccs2)c2oc(N3CC4CCC(C3)N4)nc12` [Example 1, 2-(3,8-Diazabicyclo[3.2.1]octan-3-yl)-5-chloro-7-(thiazol-2-yl)-4-(trifluoromethoxy)benzo[d]oxazole], for which the IC50 is < 100 nM.

As for `O=C(c1cc(-c2nccs2)c2oc(N3CC4CCC(C3)N4)nc2c1)N1CCCCC1` [Example 96, (2-(3,8-Diazabicyclo[3.2.1]octan-3-yl)-7-(thiazol-2-yl)benzo[d]oxazol-5-yl)(piperidin-1-yl)methanone], the IC50 is < 100 nM.

For the compound `NC(=O)c1cc(-c2nccs2)c2oc(N3CC4CCC(C3)N4)nc2c1` [Example 99, 2-(3,8-Diazabicyclo[3.2.1]octan-3-yl)-7-(thiazol-2-yl) benzo[d]oxazole-5-carboxamide], the IC50 was < 100 nM.

Turning to `Clc1ccc(-c2nccs2)c2oc(N3CC4CCC(C3)N4)nc12` [Example 36, 2-(3,8-Diazabicyclo[3.2.1]octan-3-yl)-4-chloro-7-(thiazol-2-yl)benzo[d]oxazole], the IC50 was < 100 nM.

Turning to `OC(c1cc(-c2nccs2)c2oc(N3CC4CCC(C3)N4)nc2c1)C(F)(F)F` (racemic) [Example 137, 1-(2-(3,8-Diazabicyclo[3.2.1]octan-3-yl)-7-(thiazol-2-yl)benzo[d]oxazol-5-yl)-2,2,2-trifluoroethan-1-ol], the IC50 was < 100 nM.

Consider `CC(O)(c1cc(-c2nccs2)c2oc(N3CC4CC(C3)N4)nc2c1OC(F)(F)F)C(F)(F)F` (stereo not drawn) [Example 216, 2-(2-(3,6-Diazabicyclo[3.1.1]heptan-3-yl)-7-(thiazol-2-yl)-4-(trifluoromethoxy)benzo[d]oxazol-5-yl)-1,1,1-trifluoropropan-2-ol], for which the IC50 was < 100 nM.

For the compound `CC(C)(O)C1CC(Oc2ccc(-c3nccs3)c3oc(N4CC5CC(C4)N5)nc23)C1` (stereo not drawn) [Example 267, 2-(3-((2-(3,6-Diazabicyclo[3.1.1]heptan-3-yl)-7-(thiazol-2-yl)benzo[d]oxazol-4-yl)oxy)cyclobutyl)propan-2-ol], the IC50 is < 100 nM.

As for `OC(O)(c1ccc(-c2nccs2)c2oc(N3CC4CCC(C3)N4)nc12)C(F)(F)F` [Example 233, 1-(2-(3,8-Diazabicyclo[3.2.1]octan-3-yl)-7-(thiazol-2-yl)benzo[d]oxazol-4-yl)-2,2,2-trifluoroethane-1,1-diol], the IC50 was < 100 nM.

For `OC(c1ccc(-c2nccs2)c2oc(N3CC4CCC(C3)N4)nc12)C(F)(F)F` (stereo not drawn) [Example 119, 1-(2-(3,8-Diazabicyclo[3.2.1]octan-3-yl)-7-(thiazol-2-yl)benzo[d]oxazol-4-yl)-2,2,2-trifluoroethan-1-ol], the IC50 was < 100 nM.

As to `OC(c1cc(-c2nccs2)c2oc(N3CC4CC(C3)N4)nc2c1)C(F)(F)F` (stereo not drawn) [Example 135, 1-(2-(3,6-Diazabicyclo[3.1.1]heptan-3-yl)-7-(thiazol-2-yl)benzo[d]oxazol-5-yl)-2,2,2-trifluoroethan-1-ol], the IC50 was < 100 nM.

Regarding `COC(c1cc(-c2nccs2)c2oc(N3CC4CC(C3)N4)nc2c1)C(F)(F)F` (stereo not drawn) [Example 144, 2-(3,6-Diazabicyclo[3.1.1]heptan-3-yl)-7-(thiazol-2-yl)-5-(2,2,2-trifluoro-1-methoxyethyl)benzo[d]oxazole], the IC50 is < 100 nM.

In the case of `CCOC(=O)c1cc(-c2nccs2)c2oc(N3CC4CCCC(C3)N4)nc2c1OC(F)(F)F` [Example 188, Ethyl 2-(3,9-diazabicyclo[3.3.1]nonan-3-yl)-7-(thiazol-2-yl)-4-(trifluoromethoxy)benzo[d]oxazole-5-carboxylate], the IC50 is < 100 nM.

As for `CCOC(=O)c1cc(-c2nccs2)c2oc(N3CC4CC(C3)N4)nc2c1C(F)(F)F` [Example 165, Ethyl 2-(3,6-diazabicyclo[3.1.1]heptan-3-yl)-7-(thiazol-2-yl)-4-(trifluoromethyl)benzo[d]oxazole-5-carboxylate], the IC50 was < 100 nM.

Regarding `CC(O)(c1ccc(-c2nccs2)c2oc(N3CC4CC(C3)N4)nc12)C(F)F` (stereo not drawn) [Example 126, 2-(2-(3,6-Diazabicyclo[3.1.1]heptan-3-yl)-7-(thiazol-2-yl)benzo[d]oxazol-4-yl)-1,1-difluoropropan-2-ol], the IC50 is < 100 nM.

With `CC(O)c1ccc(-c2nccs2)c2oc(N3CC4CCC(C3)N4)nc12` (stereo not drawn) [Example 124, 1-(2-(3,8-Diazabicyclo[3.2.1]octan-3-yl)-7-(thiazol-2-yl)benzo[d]oxazol-4-yl)ethan-1-ol], the IC50 was < 100 nM.

`FC(F)(F)c1c(Cl)cc(-c2ccccn2)c2oc(N3CC4CCC(C3)N4)nc12` [Example 11, 2-(3,8-Diazabicyclo[3.2.1]octan-3-yl)-5-chloro-7-(pyridin-2-yl)-4-(trifluoromethyl)benzo[d]oxazole]: the IC50 was < 100 nM.

Still in this assay, the particulars now being: scintillation proximity assay; class symbols; read-out: PDE4 Inhibitory Activity.
Turning to `O=S1(=O)CCN(c2ccc(-c3nccs3)c3oc(N4CC5CC(C4)N5)nc23)CC1` [Example 398, 4-(2-(3,6-diazabicyclo[3.1.1]heptan-3-yl)-7-(thiazol-2-yl)benzo[d]oxazol-4-yl)thiomorpholine 1,1-dioxide], the IC50 is < 100 nM.

Take `FC(F)(Oc1ccc(-c2nccs2)c2oc(N3CC4CC(C3)N4)nc12)c1nc2ccccc2o1` [Example 403, 4-(benzo [d]oxazol-2-yldifluoro-methoxy)-2-(3,6-diazabicyclo [3.1.1]heptan-3-yl)-7-(thiazol-2-yl)benzo[d] oxazole]: the IC50 was < 100 nM.

As to `CC(C)(O)C(F)(F)Oc1ccc(-c2nccs2)c2oc(N3CC4CC(C3)N4O)nc12` [Example 371, 3-(4-(1,1-difluoro-2-hydroxy-2-methylpropoxy)-7-(thiazol-2-yl)benzo[d]oxazol-2-yl)-3,6-diazabicyclo [3.1.1]heptan-6-ol], the IC50 was < 100 nM.
